Laboratory results reported in US4115541A (priority 1975, dated 1978).
Read-outs that look alike come from different tables or passages of the source.

Assays:
[1] = for Blood, % dose/1% body weight / Bone(Avg), % dose/1% body weight / Femur, % dose/1% body weight / Kidneys, % Dose in Whole Organ / Kidneys, % dose/1% body weight / Liver, % Dose in Whole Organ / Liver, % dose/1% body weight / Marrow, % Dose in Whole Organ / Marrow, % dose/1% body weight / Muscle, % dose/1% body weight / One femur, % dose in whole organ / Pelvis, % dose/1% body weight / Spine, % dose/1% body weight / Tibia, % dose/1% body weight / Blood, % Dose in Whole Organ: rabbits i.v., ~1 mg/kg EHDP
[2] = rabbits, 2 Hrs.
[3] = Localization in callous of three week-old tibial fractures in rabbits (Example 2); type: in vivo, albino rabbit; conditions: rabbits i.v.
Protocol: Adult New Zealand albino rabbits having an average weight of 3.8 kg were utilized. Strontium-85 was employed as a standard for comparison. […] Each dosage is contained in a volume of 1 ml.
The animals were sacrificed serially from 1 to 24 hours after injection and the activities in major organs were determined by counting multiple samples from each organ in a scintillation well counter (the technetium-99m counts were corrected for the Compton contributions from the strontium-85 activity in the technetium-99m energy window). Multiple samples were counted from the tibia, femur, spine and pelvic bones; the total activity in the skeleton was estimated by assuming the whole skeleton consisted of equal proportions by weight of tibia, spine, femur and pelvis and that the skeletal mass was 10% of the body weight. […] The whole liver and both kidneys were weighed and multiple samples from each were counted to measure the total activity in each organ.
In another series of experiments carried out as described above, localization of technetium from its tin-phosphonate complex was determined in the callous of three week-old fractures of tibia in albino rabbits, again in comparison with strontium-85. Comparative radioassay of technetium-99m administered as the pertechnetate was measured in the callous of tibial fractures in rabbits at one and four hours after administration.

Substance: tin-1-hydroxy-ethane-1,1-diphosphonate [^99m Tc-EHDP]
- skeletal concentrations compared with 85Sr ([1]; at various times): similar
- soft tissue and blood concentrations compared with 85Sr ([1]; at various times): much lower than those for 85Sr
- Blood, % dose/1% body weight ([1]; 1 Hr.): 1.23 % dose/1% body weight
- Bone(Avg), % dose/1% body weight ([1]; 1 Hr.): 4.66 % dose/1% body weight
- Femur, % dose/1% body weight ([1]; 1 Hr.): 3.85 % dose/1% body weight
- Kidneys, % Dose in Whole Organ ([1]; 1 Hr.): 2.40 % dose
- Kidneys, % dose/1% body weight ([1]; 1 Hr.): 3.93 % dose/1% body weight
- Liver, % Dose in Whole Organ ([1]; 1 Hr.): 0.80 % dose
- Liver, % dose/1% body weight ([1]; 1 Hr.): 0.30 % dose/1% body weight
- Marrow, % Dose in Whole Organ ([1]; 1 Hr.): 0.70 % dose
- Marrow, % dose/1% body weight ([1]; 1 Hr.): 0.36 % dose/1% body weight
- Muscle, % dose/1% body weight ([1]; 1 Hr.): 0.15 % dose/1% body weight
- One femur, % dose in whole organ ([1]; 1 Hr.): 0.82 % dose
- Pelvis, % dose/1% body weight ([1]; 1 Hr.): 7.15 % dose/1% body weight
- Spine, % dose/1% body weight ([1]; 1 Hr.): 5.87 % dose/1% body weight
- Tibia, % dose/1% body weight ([1]; 1 Hr.): 2.17 % dose/1% body weight
- Blood, % dose/1% body weight ([1]; 2 Hrs): 0.37 % dose/1% body weight
- Bone(Avg), % dose/1% body weight ([1]; 2 Hrs): 4.82 % dose/1% body weight
- Femur, % dose/1% body weight ([1]; 2 Hrs): 3.94 % dose/1% body weight
- Kidneys, % dose/1% body weight ([1]; 2 Hrs): 2.72 % dose/1% body weight
- Liver, % Dose in Whole Organ ([1]; 2 Hrs): 0.42 % dose
- Liver, % dose/1% body weight ([1]; 2 Hrs): 0.18 % dose/1% body weight
- Marrow, % Dose in Whole Organ ([1]; 2 Hrs): 0.38 % dose
- Marrow, % dose/1% body weight ([1]; 2 Hrs): 0.17 % dose/1% body weight
- Muscle, % dose/1% body weight ([1]; 2 Hrs): 0.04 % dose/1% body weight
- One femur, % dose in whole organ ([1]; 2 Hrs): 0.84 % dose
- Pelvis, % dose/1% body weight ([1]; 2 Hrs): 7.40 % dose/1% body weight
- Spine, % dose/1% body weight ([1]; 2 Hrs): 5.44 % dose/1% body weight
- Tibia, % dose/1% body weight ([1]; 2 Hrs): 2.49 % dose/1% body weight
- Blood, % Dose in Whole Organ ([1]; 4 Hrs): 0.89 % dose
- Bone(Avg), % dose/1% body weight ([1]; 4 Hrs): 4.74 % dose/1% body weight
- Femur, % dose/1% body weight ([1]; 4 Hrs): 3.86 % dose/1% body weight
- Kidneys, % Dose in Whole Organ ([1]; 4 Hrs): 0.94 % dose
- Kidneys, % dose/1% body weight ([1]; 4 Hrs): 1.95 % dose/1% body weight
- Liver, % Dose in Whole Organ ([1]; 4 Hrs): 0.28 % dose
- Marrow, % Dose in Whole Organ ([1]; 4 Hrs): 0.83 % dose
- Marrow, % dose/1% body weight ([1]; 4 Hrs): 0.38 % dose/1% body weight
- One femur, % dose in whole organ ([1]; 4 Hrs): 0.81 % dose
- Pelvis, % dose/1% body weight ([1]; 4 Hrs): 7.41 % dose/1% body weight
- Spine, % dose/1% body weight ([1]; 4 Hrs): 5.52 % dose/1% body weight
- Tibia, % dose/1% body weight ([1]; 4 Hrs): 2.16 % dose/1% body weight
- Blood, % Dose in Whole Organ ([1]; 24 Hrs): 0.49 % dose
- Blood, % dose/1% body weight ([1]; 24 Hrs): 0.07 % dose/1% body weight
- Bone(Avg), % dose/1% body weight ([1]; 24 Hrs): 4.14 % dose/1% body weight
- Femur, % dose/1% body weight ([1]; 24 Hrs): 3.42 % dose/1% body weight
- Kidneys, % Dose in Whole Organ ([1]; 24 Hrs): 0.63 % dose
- Kidneys, % dose/1% body weight ([1]; 24 Hrs): 1.29 % dose/1% body weight
- Liver, % Dose in Whole Organ ([1]; 24 Hrs): 0.43 % dose
- Liver, % dose/1% body weight ([1]; 24 Hrs): 0.28 % dose/1% body weight
- Marrow, % Dose in Whole Organ ([1]; 24 Hrs): 0.42 % dose
- Marrow, % dose/1% body weight ([1]; 24 Hrs): 0.19 % dose/1% body weight
- One femur, % dose in whole organ ([1]; 24 Hrs): 0.76 % dose
- Pelvis, % dose/1% body weight ([1]; 24 Hrs): 5.70 % dose/1% body weight
- Spine, % dose/1% body weight ([1]; 24 Hrs): 5.30 % dose/1% body weight
- Tibia, % dose/1% body weight ([1]; 24 Hrs): 2.10 % dose/1% body weight
- Blood, % Dose in Whole Organ ([2]; EHDP 0.01 mg/kg): 0.99 % Dose
- Blood, % Dose/1%-body weight ([2]; EHDP 0.01 mg/kg): 0.142 % Dose/1%-body weight
- Femur, % Dose/1%-body weight ([2]; EHDP 0.01 mg/kg): 7.49 % Dose/1%-body weight
- Kidney, % Dose/1%-body weight ([2]; EHDP 0.01 mg/kg): 1.55 % Dose/1%-body weight
- Kidneys, % Dose in Whole Organ ([2]; EHDP 0.01 mg/kg): 0.81 % Dose
- Liver, % Dose in Whole Organ ([2]; EHDP 0.01 mg/kg): 0.53 % Dose
- Liver, % Dose/1%-body weight ([2]; EHDP 0.01 mg/kg): 0.154 % Dose/1%-body weight
- Marrow, % Dose in Whole Organ ([2]; EHDP 0.01 mg/kg): 0.34 % Dose
- Marrow, % Dose/1%-body weight ([2]; EHDP 0.01 mg/kg): 0.152 % Dose/1%-body weight
- Muscle, % Dose in Whole Organ ([2]; EHDP 0.01 mg/kg): 0.78 % Dose
- One femur, % dose in whole organ ([2]; EHDP 0.01 mg/kg): 2.20 % Dose
- Tibia, % Dose/1%-body weight ([2]; EHDP 0.01 mg/kg): 8.22 % Dose/1%-body weight
- Blood, % Dose/1%-body weight ([2]; EHDP 0.05 mg/kg): 0.193 % Dose/1%-body weight
- Femur, % Dose/1%-body weight ([2]; EHDP 0.05 mg/kg): 8.38 % Dose/1%-body weight
- Kidney, % Dose/1%-body weight ([2]; EHDP 0.05 mg/kg): 3.83 % Dose/1%-body weight
- Kidneys, % Dose in Whole Organ ([2]; EHDP 0.05 mg/kg): 2.9 % Dose
- Liver, % Dose/1%-body weight ([2]; EHDP 0.05 mg/kg): 0.432 % Dose/1%-body weight
- Marrow, % Dose in Whole Organ ([2]; EHDP 0.05 mg/kg): 0.78 % Dose
- Marrow, % Dose/1%-body weight ([2]; EHDP 0.05 mg/kg): 0.353 % Dose/1%-body weight
- Tibia, % Dose/1%-body weight ([2]; EHDP 0.05 mg/kg): 8.68 % Dose/1%-body weight
- Blood, % Dose/1%-body weight ([2]; EHDP 0.1 mg/kg): 0.146 % Dose/1%-body weight
- Femur, % Dose/1%-body weight ([2]; EHDP 0.1 mg/kg): 8.97 % Dose/1%-body weight
- Kidney, % Dose/1%-body weight ([2]; EHDP 0.1 mg/kg): 1.09 % Dose/1%-body weight
- Kidneys, % Dose in Whole Organ ([2]; EHDP 0.1 mg/kg): 0.63 % Dose
- Liver, % Dose in Whole Organ ([2]; EHDP 0.1 mg/kg): 0.19 % Dose
- Liver, % Dose/1%-body weight ([2]; EHDP 0.1 mg/kg): 0.068 % Dose/1%-body weight
- Marrow, % Dose in Whole Organ ([2]; EHDP 0.1 mg/kg): 0.20 % Dose
- Marrow, % Dose/1%-body weight ([2]; EHDP 0.1 mg/kg): 0.093 % Dose/1%-body weight
- Muscle, % Dose in Whole Organ ([2]; EHDP 0.1 mg/kg): 0.98 % Dose
- Tibia, % Dose/1%-body weight ([2]; EHDP 0.1 mg/kg): 9.63 % Dose/1%-body weight
- Blood, % Dose/1%-body weight ([2]; EHDP 0.5 mg/kg): 0.215 % Dose/1%-body weight
- Kidney, % Dose/1%-body weight ([2]; EHDP 0.5 mg/kg): 2.23 % Dose/1%-body weight
- Kidneys, % Dose in Whole Organ ([2]; EHDP 0.5 mg/kg): 1.10 % Dose
- Liver, % Dose in Whole Organ ([2]; EHDP 0.5 mg/kg): 0.260 % Dose
- Liver, % Dose/1%-body weight ([2]; EHDP 0.5 mg/kg): 0.086 % Dose/1%-body weight
- Marrow, % Dose in Whole Organ ([2]; EHDP 0.5 mg/kg): 0.19 % Dose
- Marrow, % Dose/1%-body weight ([2]; EHDP 0.5 mg/kg): 0.088 % Dose/1%-body weight
- Callus, % dose/1% body weight ([3]; 1 Hr.): 24.7 % dose/1% body weight
- Callus, % dose/1% body weight ([3]; 4 Hrs): 28.9 % dose/1% body weight
